Data taken from patent US10577378B2, “EIF4A-inhibiting compounds and methods related thereto” (eFFECTOR Therapeutics, Inc., priority 2015, dated 2020).
Structures can show the parent of a compound that is named as a salt.

test system: MDA-MB-231 human breast cancer cells; experiment: Cell proliferation assay (CellTiter-Glo, 72 hours treatment); type: cell-based; conditions: Homo sapiens; MDA-MB-231 cells, 72 hours at 37° C., CellTiter-Glo; read-out: MDA-MB-231 cell proliferation assay (IC50)
Description: Human tumor cell lines were cultured in the appropriate media (DMEM and RPMI) supplemented with penicillin G (100 U/ml), streptomycin (100 μg/ml), 10% FBS in a humidified atmosphere of 5% CO2 maintained at 37° C. Exponentially growing cells were seeded at 2,500 cells/well in 96 well plates prior to drug treatment. The following day, cells were treated with either DMSO (vehicle control) or eIF4A inhibitors at the appropriate dose for 72 hours at 37° C. Following compound treatment, cell proliferation was assessed by CellTiter-Glo assay (Promega, Madison Wis.) according to the manufacturer's protocol. Dose-response curves were fitted by non-linear regression (sigmoidal dose response model) using KaleidaGraph (Synergy Software, Reading Pa.) and IC50 values were calculated.
To this end, IC50 values of less than 100 nM are labelled as “+++”, from 100 nM to 1000 nM are labelled as “++”, and greater than 1000 nM are labelled as “+” (NA means “not available”).

Structure (SMILES) | IC50
COc1cncc2c1[C@]1(O)[C@H](O)[C@H](CN3CC(F)(F)C3)[C@@H](c3ccccc3)[C@]1(c1ccc(C#N)cc1)O2 (single isomer, unassigned) [122F] | 100 to 1000 nM
COCCNC(=O)[C@H]1[C@@H](O)[C@@]2(O)c3c(OC)cncc3O[C@@]2(c2ccc(Br)cc2)[C@@H]1c1ccccc1 (racemic) [262F, Rac-(4bS,5R,6R,7S,7aR)-7a-(4-bromophenyl)-4b,5-dihydroxy-4-methoxy-N-(2-methoxyethyl)-7-phenyl-4b,6,7,7a-tetrahydro-5H-cyclopenta[4,5]furo[2,3-c]pyridine-6-carboxamide] | < 100 nM
N#Cc1ccc([C@@]23Oc4cc(Cl)cnc4[C@]2(O)[C@H](O)[C@H](Sc2ccccn2)[C@H]3c2ccccc2)cc1 (racemic) [189F, Rac-4-((5aR,6S,7R,8S,8aS)-3-chloro-8,8a-dihydroxy-6-phenyl-7-(pyridin-2-ylthio)-6,7,8,8a-tetrahydro-5aH-cyclopenta[4,5]furo[3,2-b]pyridin-5a-yl)benzonitrile] | 100 to 1000 nM
O=S(=O)(c1ccccn1)[C@H]1[C@@H](O)[C@@]2(O)c3ncc(Cl)cc3O[C@@]2(c2ccc(Br)cc2)[C@@H]1c1ccccc1 (racemic) [163F, rac-(5aR,6S,7R,8S,8aS)-5a-(4-bromophenyl)-3-chloro-6-phenyl-7-(pyridin-2-ylsulfonyl)-5a,6,7,8-tetrahydro-8aH-cyclopenta[4,5]furo[3,2-b]pyridine-8,8a-diol] | 100 to 1000 nM
N#Cc1ccc([C@@]23Oc4cc(Cl)cnc4[C@]2(O)[C@H](O)C[C@H]3c2ccccc2)cc1 (racemic) [128F, Rac-4-((5aR,6S,8R,8aS)-3-chloro-8,8a-dihydroxy-6-phenyl-6,7,8,8a-tetrahydro-5aH-cyclopenta[4,5]furo[3,2-b]pyridin-5a-yl)benzonitrile] | 100 to 1000 nM
CCN(C)C[C@H]1[C@@H](O)[C@@]2(O)c3c(OC)cncc3O[C@@]2(c2ccc(C#N)cc2)[C@@H]1c1ccccc1 (racemic) [74F, Rac-4-((4bS,5R,6S,7S,7aR)-6-((ethyl(methyl)amino)methyl)-4b,5-dihydroxy-4-methoxy-7-phenyl-4b,5,6,7-tetrahydro-7aH-cyclopenta[4,5]furo[2,3-c]pyridin-7a-yl)benzonitrile] | < 100 nM
COC(=O)[C@H]1[C@@H](O)[C@@]2(O)c3c(cc(Cl)nc3OC)O[C@@]2(c2ccc(Br)cc2)[C@@H]1c1ccccc1 (racemic) [136F, Rac-Methyl (5aR,6S,7R,8R,8aS)-5a-(4-bromophenyl)-3-chloro-8,8a-dihydroxy-1-methoxy-6-phenyl-5a,7,8,8a-tetrahydro-6H-cyclopenta[4,5]furo[3,2-c]pyridine-7-carboxylate] | < 100 nM
COc1cncc2c1[C@]1(O)[C@H](O)[C@H](CNCC(F)F)[C@@H](c3ccccc3)[C@]1(c1ccc(C(F)(F)F)cc1)O2 (single isomer, unassigned) [286F] | 100 to 1000 nM
COc1ccc([C@@]23Oc4cc(OC)cnc4[C@]2(O)[C@H](O)[C@H](C(=O)N(C)C)[C@H]3c2ccccc2)cc1 (racemic) [1F, Rac-(5aR,6S,7R,8R,8aS)-8,8a-dihydroxy-3-methoxy-5a-(4-methoxyphenyl)-N,N-dimethyl-6-phenyl-5a,7,8,8a-tetrahydro-6H-cyclopenta[4,5]furo[3,2-b]pyridine-7-carboxamide] | 100 to 1000 nM
COc1cncc2c1[C@]1(O)[C@H](O)[C@H](CN(C)CCO)[C@@H](c3ccccc3)[C@]1(c1ccc(C#N)cc1)O2 (racemic) [75F, rac-4-((4bS,5R,6S,7S,7aR)-4b,5-dihydroxy-6-(((2-hydroxyethyl)(methyl)amino)methyl)-4-methoxy-7-phenyl-4b,5,6,7-tetrahydro-7aH-cyclopenta[4,5]furo[2,3-c]pyridin-7a-yl)benzonitrile] | 100 to 1000 nM
CCN(CC)C[C@H]1[C@@H](O)[C@@]2(O)c3c(cc(C#N)nc3OC)O[C@@]2(c2ccc(C#N)cc2)[C@@H]1c1ccccc1 (racemic) [159Fc, Rac-(5aR,6S,7S,8R,8aS)-5a-(4-cyanophenyl)-7-((diethylamino)methyl)-8,8a-dihydroxy-1-methoxy-6-phenyl-5a,7,8,8a-tetrahydro-6H-cyclopenta[4,5]furo[3,2-c]pyridine-3-carbonitrile] | < 100 nM
CNC[C@H]1[C@@H](O)[C@@]2(O)c3c(OC)cncc3O[C@@]2(c2ccc(C#N)cc2)[C@@H]1c1ccccc1 (racemic) [69F, Rac-4-((4bS,5R,6S,7S,7aR)-4b,5-dihydroxy-4-methoxy-6-((methylamino)methyl)-7-phenyl-4b,5,6,7-tetrahydro-7aH-cyclopenta[4,5]furo[2,3-c]pyridin-7a-yl)benzonitrile] | 100 to 1000 nM
COc1nc(Cl)cc2c1[C@]1(O)[C@H](O)[C@H](C(=O)O)[C@@H](c3ccccc3)[C@]1(c1ccc(Br)cc1)O2 (racemic) [295F, rac-(5aR,6S,7R,8R,8aS)-5a-(4-bromophenyl)-3-chloro-8,8a-dihydroxy-1-methoxy-6-phenyl-5a,7,8,8a-tetrahydro-6H-cyclopenta[4,5]furo[3,2-c]pyridine-7-carboxylic acid] | < 100 nM
COc1cncc2c1[C@]1(O)[C@H](O)[C@H](C(=O)N(C)CCF)[C@@H](c3ccccc3)[C@]1(c1ccc(Br)cc1)O2 (racemic) [247F, Rac-(4bS,5R,6R,7S,7aR)-7a-(4-bromophenyl)-N-(2-fluoroethyl)-4b,5-dihydroxy-4-methoxy-N-methyl-7-phenyl-4b,6,7,7a-tetrahydro-5H-cyclopenta[4,5]furo[2,3-c]pyridine-6-carboxamide] | < 100 nM
COc1nccc2c1[C@]1(O)[C@H](O)[C@H](CN(C)C)[C@@H](c3ccccc3)[C@]1(c1ccc(C(F)(F)F)cc1)O2 (racemic) [149F, Rac-(5aR,6S,7S,8R,8aS)-7-((dimethylamino)methyl)-1-methoxy-6-phenyl-5a-(4-(trifluoromethyl)phenyl)-5a,6,7,8-tetrahydro-8aH-cyclopenta[4,5]furo[3,2-c]pyridine-8,8a-diol] | > 1000 nM
N#Cc1ccc([C@@]23Oc4cc(Cl)cnc4[C@]2(O)[C@H](O)[C@H](CO)[C@H]3c2ccccc2)cc1 (racemic) [56F, Rac-4-((5aR,6S,7S,8R,8aS)-3-chloro-8,8a-dihydroxy-7-(hydroxymethyl)-6-phenyl-6,7,8,8a-tetrahydro-5aH-cyclopenta[4,5]furo[3,2-b]pyridin-5a-yl)benzonitrile] | > 1000 nM
COC(=O)[C@@H]1[C@@H](c2ccccc2)[C@]2(c3ccc(Br)cc3)Oc3cc(Cl)cnc3[C@]2(O)[C@H]1C#N (racemic) [49F, Rac-methyl (5aR,6S,7R,8R,8aR)-5a-(4-bromophenyl)-3-chloro-8-cyano-8a-hydroxy-6-phenyl-5a,7,8,8a-tetrahydro-6H-cyclopenta[4,5]furo[3,2-b]pyridine-7-carboxylate] | 100 to 1000 nM
COc1cncc2c1[C@]1(O)[C@@H](CN3CCN(C)CC3)[C@H](CO)[C@@H](c3ccccc3)[C@]1(c1ccc(C#N)cc1)O2 (racemic) [184F, Rac-4-((4bR,5R,6R,7S,7aR)-4b-hydroxy-6-(hydroxymethyl)-4-methoxy-5-((4-methyl-piperazin-1-yl)methyl)-7-phenyl-4b,5,6,7-tetrahydro-7aH-cyclopenta[4,5]furo[2,3-c]pyridin-7a-yl)benzonitrile] | < 100 nM
COCCNC[C@H]1[C@@H](O)[C@@]2(O)c3c(OC)cncc3O[C@@]2(c2ccc(C#N)cc2)[C@@H]1c1ccccc1 [263F, 4-((4bS,5R,6S,7S,7aR)-4b,5-dihydroxy-4-methoxy-6-(((2-methoxyethyl)amino)methyl)-7-phenyl-4b,5,6,7-tetrahydro-7aH-cyclopenta[4,5]furo[2,3-c]pyridin-7a-yl)benzonitrile hydrochloride] | < 100 nM
COc1cncc2c1[C@]1(O)[C@H](O)[C@H](CN(C)CC(F)F)[C@@H](c3ccccc3)[C@]1(c1ccc(C#N)cc1)O2 (single isomer, unassigned) [112F] | 100 to 1000 nM
COc1cncc2c1[C@]1(O)[C@H](O)[C@H](CN(C)C)[C@@H](c3ccccc3)[C@]1(c1ccc(C(F)(F)F)cc1)O2 (single isomer, unassigned) [107F] | 100 to 1000 nM
COc1ccc2c(n1)O[C@@]1(c3ccc(C#N)cc3)[C@H](c3ccccc3)[C@@H](C(=O)N(C)C)[C@@H](O)[C@@]21O (racemic) [15F, Rac-(4bS,5R,6R,7S,7aR)-7a-(4-cyanophenyl)-4b,5-dihydroxy-2-methoxy-N,N-dimethyl-7-phenyl-4b,6,7,7a-tetrahydro-5H-cyclopenta[4,5]furo[2,3-b]pyridine-6-carboxamide] | > 1000 nM
COc1cncc2c1[C@]1(O)[C@H](O)[C@H](CN3CC4CC(C3)O4)[C@@H](c3ccccc3)[C@]1(c1ccc(C#N)cc1)O2 (single isomer, unassigned) [274F] | 100 to 1000 nM
NC[C@@H]1C[C@@H](c2ccccc2)[C@]2(c3ccc(Br)cc3)Oc3cc(Cl)cnc3[C@]12O (racemic) [165F, Rac-(5aR,6S,8S,8aR)-8-(aminomethyl)-5a-(4-bromophenyl)-3-chloro-6-phenyl-5a,6,7,8-tetra-hydro-8aH-cyclopenta[4,5]furo[3,2-b]pyridin-8a-ol] | 100 to 1000 nM
COc1nc(C#N)cc2c1[C@]1(O)[C@H](O)[C@H](CN3CCC(F)(F)C3)[C@@H](c3ccccc3)[C@]1(c1ccc(C#N)cc1)O2 (racemic) [153F, Rac-(5aR,6S,7S,8R,8aS)-5a-(4-cyanophenyl)-7-((3,3-difluoropyrrolidin-1-yl)methyl)-8,8a-dihydroxy-1-methoxy-6-phenyl-5a,7,8,8a-tetrahydro-6H-cyclopenta[4,5]furo[3,2-c]pyridine-3-carbonitrile] | 100 to 1000 nM
